Measurements: ChEMBL document CHEMBL3044904, “Mild and highly efficient copper (II) sulfate catalyzed one pot synthesis of 2-aryl benzimidazole using atmospheric air as an oxidant and its antibacterial study” (2013)
Values after ≈ are worked out from the molar mass of the structure shown.

Columns and labels:
Assay type in all cases: functional
Pseudomonas aeruginosa = test: Antibacterial activity against Pseudomonas aeruginosa ATCC 23564 assessed as growth inhibition after 24 hr by two-fold serial dilution method; settings: ATCC 23564, 24 h
Enterococcus faecalis = test: Antibacterial activity against Enterococcus feacalis clinical isolate assessed as growth inhibition after 24 hr by two-fold serial dilution method
Salmonella typhi = test: Antibacterial activity against Salmonella enterica subsp. enterica serovar Typhi ATCC 15499 assessed as growth inhibition after 24 hr by two-fold serial dilution method; settings: ATCC 15499, 24 h
Staphylococcus aureus = test: Antibacterial activity against Staphylococcus aureus ATCC 11632 assessed as growth inhibition after 24 hr by two-fold serial dilution method; settings: ATCC 11632, 24 h
Escherichia coli = test: Antibacterial activity against Escherichia coli ATCC 35218 assessed as growth inhibition after 24 hr by two-fold serial dilution method; settings: ATCC 35218, 24 h
Bacillus cereus = test: Antibacterial activity against Bacillus cereus MTCC 7350 assessed as growth inhibition after 24 hr by two-fold serial dilution method; settings: MTCC 7350, 24 h

Structure (SMILES)	MIC (Pseudomonas aeruginosa)	MIC (Enterococcus faecalis)	MIC (Salmonella typhi)	MIC (Staphylococcus aureus)	MIC (Escherichia coli)	MIC (Bacillus cereus)
c1ccc(-c2nc3ccccc3[nH]2)cc1	12.5 µg/mL (≈ 64.4 µM)	12.5 µg/mL (≈ 64.4 µM)	6.25 µg/mL (≈ 32.2 µM)	12.5 µg/mL (≈ 64.4 µM)	50 µg/mL (≈ 257 µM)	50 µg/mL (≈ 257 µM)
Oc1ccccc1-c1nc2ccccc2[nH]1	25 µg/mL (≈ 119 µM)	50 µg/mL (≈ 238 µM)	400 µg/mL (≈ 1900 µM)	25 µg/mL (≈ 119 µM)	400 µg/mL (≈ 1900 µM)	6.25 µg/mL (≈ 29.7 µM)
Cc1ccc(-c2nc3ccccc3[nH]2)cc1	12.5 µg/mL (≈ 60 µM)	50 µg/mL (≈ 240 µM)	50 µg/mL (≈ 240 µM)	25 µg/mL (≈ 120 µM)	50 µg/mL (≈ 240 µM)	200 µg/mL (≈ 960 µM)
C(=C\c1ccc(-c2nc3ccccc3[nH]2)cc1)/c1ccccc1	12.5 µg/mL (≈ 42.2 µM)	25 µg/mL (≈ 84.4 µM)	25 µg/mL (≈ 84.4 µM)	12.5 µg/mL (≈ 42.2 µM)	50 µg/mL (≈ 169 µM)	6.25 µg/mL (≈ 21.1 µM)
Oc1ccc(-c2nc3ccccc3[nH]2)cc1	25 µg/mL (≈ 119 µM)	100 µg/mL (≈ 476 µM)	400 µg/mL (≈ 1900 µM)	25 µg/mL (≈ 119 µM)	400 µg/mL (≈ 1900 µM)	50 µg/mL (≈ 238 µM)
COc1ccc(-c2nc3ccccc3[nH]2)cc1	25 µg/mL (≈ 111 µM)	25 µg/mL (≈ 111 µM)	25 µg/mL (≈ 111 µM)	12.5 µg/mL (≈ 55.7 µM)	50 µg/mL (≈ 223 µM)	50 µg/mL (≈ 223 µM)
Clc1ccc(-c2nc3ccccc3[nH]2)cc1	12.5 µg/mL (≈ 54.7 µM)	12.5 µg/mL (≈ 54.7 µM)	25 µg/mL (≈ 109 µM)	12.5 µg/mL (≈ 54.7 µM)	25 µg/mL (≈ 109 µM)	6.25 µg/mL (≈ 27.3 µM)
O=[N+]([O-])c1ccc(-c2nc3ccccc3[nH]2)cc1	12.5 µg/mL (≈ 52.3 µM)	25 µg/mL (≈ 105 µM)	25 µg/mL (≈ 105 µM)	50 µg/mL (≈ 209 µM)	50 µg/mL (≈ 209 µM)	25 µg/mL (≈ 105 µM)
CC1(C)S[C@@H]2[C@H](NC(=O)[C@H](N)c3ccccc3)C(=O)N2[C@H]1C(=O)O [AMPICILLIN]	50 µg/mL (≈ 143 µM)	400 µg/mL (≈ 1140 µM)	6.25 µg/mL (≈ 17.9 µM)	50 µg/mL (≈ 143 µM)	400 µg/mL (≈ 1140 µM)	50 µg/mL (≈ 143 µM)
O=C(O)c1cn(C2CC2)c2cc(N3CCNCC3)c(F)cc2c1=O [CIPROFLOXACIN]	1.25 µg/mL (≈ 3.77 µM)	–	3.12 µg/mL (≈ 9.42 µM)	–	–	–
